Our source for the T/C values is PubChem BioAssay AID330 (DTP/NCI, 2004).

Where “and” joins values, the source holds several entries; their conditions need not be identical. Equal values may be shown once. Inconclusive results and toxic doses are left out.

In this test the test system is P388 leukemia ip, CD2F1 mice, survival T/C. The test can be described thus: NCI In Vivo Anticancer Drug Screen. Data for tumor model P388 Leukemia (intraperitoneal) in CD2F1 (CDF1) mice. As to conditions: endpoint: median survival time, higher = longer survival. The gist of the method:
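Mice carrying the transplanted tumor received test compound or vehicle. Survival was recorded in each group, and the value is the treated-group measurement divided by that of the vehicle-treated control group.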

Where [1] appears, read: dose: 50.0 mg/kg/injection, schedule: Q01DX005 (ip), vehicle: saline with Tween-80.
The mark [2] stands for this setting: dose: 100.0 mg/kg/injection, schedule: Q01DX005 (ip), vehicle: saline with Tween-80.
The mark [3] stands for this setting: dose: 200.0 mg/kg/injection, schedule: Q01DX005 (ip), vehicle: saline with Tween-80.
[4] abbreviates: dose: 50.0 mg/kg/injection, schedule: Q01DX009 (ip), vehicle: saline with Tween-80.
The mark [5] stands for this setting: dose: 200.0 mg/kg/injection, schedule: Q01DX009 (ip), vehicle: saline with Tween-80.
The mark [6] stands for this setting: dose: 12.5 mg/kg/injection, schedule: Q01DX009 (ip), vehicle: saline with Tween-80.
The mark [7] stands for this setting: dose: 25.0 mg/kg/injection, schedule: Q01DX009 (ip), vehicle: saline with Tween-80.
The mark [8] stands for this setting: dose: 100.0 mg/kg/injection, schedule: Q04DX003 (ip), vehicle: saline.
The mark [9] stands for this setting: dose: 200.0 mg/kg/injection, schedule: Q04DX003 (ip), vehicle: saline.
[10] abbreviates: dose: 400.0 mg/kg/injection, schedule: Q04DX003 (ip), vehicle: saline.

With `O=C1C2OC2C(=O)C2C3C=CC(C3)C12` (stereo unspecified), the T/C by setting is: (dose: 75.0 mg/kg/injection, schedule: Q04DX002 (ip), vehicle: saline with Tween-80) 99 % of control; (dose: 150.0 mg/kg/injection, schedule: Q04DX002 (ip), vehicle: saline with Tween-80) 96 % of control; (dose: 300.0 mg/kg/injection, schedule: Q04DX002 (ip), vehicle: saline with Tween-80) 95 % of control.

Take `O=C(NC(Cc1c[nH]c2ccccc12)C(=O)NC(Cc1ccc(O)cc1)C(=O)O)OCc1ccccc1` (stereo unspecified): the T/C is 101 % of control under setting [1], 106 % of control under setting [2] and 89 % of control under setting [3].

Take `NC(=O)C1C(=O)NC(=O)C1=O` (stereo unspecified): the T/C by setting is: (dose: 15.0 mg/kg/injection, schedule: Q01DX005 (ip), vehicle: saline with Tween-80) 100 % of control; (dose: 30.0 mg/kg/injection, schedule: Q01DX005 (ip), vehicle: saline with Tween-80) 101 % of control; (dose: 60.0 mg/kg/injection, schedule: Q01DX005 (ip), vehicle: saline with Tween-80) 109 % of control and 114 % of control.

On to `Cc1c(C2Nc3ccccc3C2C)[nH]c2ccccc12` (stereo unspecified), for which the T/C is 104 % of control under setting [1], 100 % of control under setting [2] and 103 % of control under setting [3].

Consider `CO/C=C(/C#N)S(=O)(=O)/C(C#N)=C/OC`, for which the T/C under setting [1] was 100 % of control, the T/C under setting [2] was 112 % of control and the T/C under setting [3] is 104 % of control.

In the case of `C=CC(=O)CC1(C(=O)OC)NC(=S)NC(=O)C1C#N` (stereo unspecified), the T/C reads like this: (dose: 60.0 mg/kg/injection, schedule: Q01DX005 (ip), vehicle: Klucel (hydroxypropylcellulose) (HPC)) 102 % of control; (dose: 120.0 mg/kg/injection, schedule: Q01DX005 (ip), vehicle: Klucel (hydroxypropylcellulose) (HPC)) 102 % of control; (dose: 240.0 mg/kg/injection, schedule: Q01DX005 (ip), vehicle: Klucel (hydroxypropylcellulose) (HPC)) 98 % of control.

Turning to `[Cl][Sn]([c]1cccc2ccccc12)[c]1cccc2ccccc12`, the T/C by setting is: (dose: 1.56 mg/kg/injection, schedule: Q01DX005 (ip), vehicle: Klucel (hydroxypropylcellulose) (HPC)) 101 % of control; (dose: 3.12 mg/kg/injection, schedule: Q01DX005 (ip), vehicle: Klucel (hydroxypropylcellulose) (HPC)) 120 % of control; (dose: 6.25 mg/kg/injection, schedule: Q01DX005 (ip), vehicle: Klucel (hydroxypropylcellulose) (HPC)) 124 % of control; (dose: 12.5 mg/kg/injection, schedule: Q01DX005 (ip), vehicle: Klucel (hydroxypropylcellulose) (HPC)) 109 % of control.

Regarding `CC1OC(O[C@H]2/C=C/C=C/C=C/C=C/C=C/C=C/C=C/[C@H](C)[C@@H](O)[C@@H](C)[C@H](C)OC(=O)C[C@H](O)C[C@H](O)CC[C@@H](O)[C@H](O)C[C@H](O)C[C@]3(O)C[C@H](O)[C@@H](C(=O)O)[C@H](C2)O3)C(O)C(N)C1O` (stereo partly specified), the T/C was 90 % of control and 95 % of control (dose: 1.0 mg/kg/injection, schedule: Q01DX009 (ip), vehicle: saline); 119 % of control and 90 % of control (dose: 2.0 mg/kg/injection, schedule: Q01DX009 (ip), vehicle: saline); 98 % of control and 102 % of control and 105 % of control (dose: 4.0 mg/kg/injection, schedule: Q01DX009 (ip), vehicle: saline); 100 % of control and 106 % of control and 87 % of control (dose: 8.0 mg/kg/injection, schedule: Q01DX009 (ip), vehicle: saline); 122 % of control and 94 % of control (dose: 16.0 mg/kg/injection, schedule: Q01DX009 (ip), vehicle: saline).

Consider `O=C1CCCCCCC1C1SCCS1` (stereo unspecified), for which the T/C under setting [4] is 102 % of control; the T/C (dose: 100.0 mg/kg/injection, schedule: Q01DX009 (ip), vehicle: saline with Tween-80) is 109 % of control; the T/C under setting [5] is 114 % of control.

Consider `O=C(Nc1ccc(N(CCCl)CCCl)cc1)Oc1ccc(C(=O)O)cc1`, for which the T/C is, setting by setting: (dose: 6.25 mg/kg/injection, schedule: Q01DX009 (ip), vehicle: saline with Tween-80) 179 % of control and 193 % of control; under setting [6], 185 % of control and 189 % of control; under setting [7], 106 % of control.

With `NC(=O)c1nc2c(Nc3ccccc3Br)nc(N)nc2nc1N`, the T/C by setting is: (dose: 100.0 mg/kg/injection, schedule: Q01DX001 (ip), vehicle: saline) 104 % of control; (dose: 200.0 mg/kg/injection, schedule: Q01DX001 (ip), vehicle: saline) 101 % of control; (dose: 400.0 mg/kg/injection, schedule: Q01DX001 (ip), vehicle: saline) 97 % of control.

In the case of `CCc1nnc2c(c(=O)n(C)c(=O)n2C)[n+]1[O-]`, the T/C by setting is: (dose: 20.0 mg/kg/injection, schedule: Q01DX001 (ip), vehicle: Klucel (hydroxypropylcellulose) (HPC)) 106 % of control; (dose: 40.0 mg/kg/injection, schedule: Q01DX001 (ip), vehicle: Klucel (hydroxypropylcellulose) (HPC)) 106 % of control; (dose: 80.0 mg/kg/injection, schedule: Q01DX001 (ip), vehicle: Klucel (hydroxypropylcellulose) (HPC)) 112 % of control; (dose: 100.0 mg/kg/injection, schedule: Q01DX001 (ip), vehicle: Klucel (hydroxypropylcellulose) (HPC)) 109 % of control.

With `CC(=O)CC(C)=NCC(C)N=C(C)CC(C)=O` (stereo unspecified), the T/C runs as follows: under setting [8], 100 % of control; under setting [9], 100 % of control; under setting [10], 100 % of control.

On to `CCCCCCCCCCCCCCCC[N+](C)(C)CCSc1ccccc1`, for which the T/C is 107 % of control and 108 % of control and 111 % of control (dose: 1.56 mg/kg/injection, schedule: Q01DX009 (ip), vehicle: distilled water + alcohol); 110 % of control (2×) and 122 % of control (dose: 3.12 mg/kg/injection, schedule: Q01DX009 (ip), vehicle: distilled water + alcohol); 98 % of control (dose: 12.5 mg/kg/injection, schedule: Q01DX009 (ip), vehicle: distilled water + alcohol).

In the case of `O=C(CCCl)N/N=C/c1ccccc1`, the T/C (dose: 2.5 mg/kg/injection, schedule: Q01DX009 (ip), vehicle: saline) is 104 % of control; the T/C (dose: 5.0 mg/kg/injection, schedule: Q01DX009 (ip), vehicle: saline) was 98 % of control and 101 % of control; the T/C (dose: 10.0 mg/kg/injection, schedule: Q01DX009 (ip), vehicle: saline) is 114 % of control and 115 % of control.

In the case of `Cc1ccc(S(=O)(=O)NC(=O)NC(C)Cc2ccccc2)cc1` (stereo unspecified), the T/C reads like this: under setting [6], 102 % of control; under setting [7], 100 % of control; under setting [4], 101 % of control and 105 % of control; under setting [5], 98 % of control.

Turning to `CNC1Cc2c[nH]c3cccc(c23)C12C=C(C)C(=O)O2` (stereo unspecified), the T/C is, setting by setting: (dose: 75.0 mg/kg/injection, schedule: Q01DX009 (ip), vehicle: saline with Tween-80) 120 % of control and 115 % of control; (dose: 150.0 mg/kg/injection, schedule: Q01DX009 (ip), vehicle: saline with Tween-80) 120 % of control and 115 % of control; (dose: 300.0 mg/kg/injection, schedule: Q01DX009 (ip), vehicle: saline with Tween-80) 120 % of control.

Turning to `CSC(=S)c1ccccc1NS(=O)(=O)c1ccccc1`, the T/C was 113 % of control under setting [8], 103 % of control under setting [9] and 108 % of control under setting [10].

With `C1CNP2(=NP(N3CC3)(N3CC3)=NP(N3CC3)(N3CC3)=N2)N1`, the T/C is 108 % of control (dose: 12.5 mg/kg/injection, schedule: Q01DX001 (ip), vehicle: saline with Tween-80); 108 % of control (dose: 25.0 mg/kg/injection, schedule: Q01DX001 (ip), vehicle: saline with Tween-80); 156 % of control (dose: 100.0 mg/kg/injection, schedule: Q01DX001 (ip), vehicle: saline with Tween-80).

Take `CCOC(=O)C1=C(C)NC(CO)=C(C(=O)OCC)C1c1cccc([N+](=O)[O-])c1` (stereo unspecified): the T/C runs as follows: under setting [1], 94 % of control; under setting [2], 95 % of control; under setting [3], 92 % of control.

Regarding `CCc1cccc(C2(C)C(=O)c3ccccc3C2=O)c1`, the T/C was 105 % of control (dose: 100.0 mg/kg/injection, schedule: Q04DX002 (ip), vehicle: saline); 100 % of control (dose: 200.0 mg/kg/injection, schedule: Q04DX002 (ip), vehicle: saline); 102 % of control (dose: 400.0 mg/kg/injection, schedule: Q04DX002 (ip), vehicle: saline).

As for `Cc1cccc(Nc2nc(C)nc3[nH]c(CC(C)C)c(C)c23)c1`, the T/C reads like this: (dose: 50.0 mg/kg/injection, schedule: Q01DX005 (ip), vehicle: Klucel (hydroxypropylcellulose) (HPC)) 91 % of control; (dose: 100.0 mg/kg/injection, schedule: Q01DX005 (ip), vehicle: Klucel (hydroxypropylcellulose) (HPC)) 96 % of control; (dose: 200.0 mg/kg/injection, schedule: Q01DX005 (ip), vehicle: Klucel (hydroxypropylcellulose) (HPC)) 98 % of control.
